Measurements reported in patent US8349827B2, “Substituted dipyrido-pyrimido-diazepine and benzo-pyrido-pyrimido compounds” (ArQule, Inc., priority 2009, dated 2013).
Structures can show the parent of a compound that is named as a salt.

Experiments:
DLD-1 = assay: MTS assay, DLD-1 cells; type: cell-based; settings: Homo sapiens, 72 hours
In short: (§1)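 First, seed 3000 cells per well in low-serum (1% FBS) DMEM and culture 18 h. Next, add compounds prepared at 300× in DMSO and diluted 1:40 in DMEM; incubate 72 h. Finally, add MTS/PMS for 4 h and measure absorbance at 492 nm.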

KATO III = assay: MTS assay, KATO III cells; type: cell-based; settings: Homo sapiens, 72 hours
In short: as §1

MDA-MB-231 = assay: MTS assay, MDA-MB-231 cells; type: cell-based; settings: Homo sapiens, 72 hours
In short: as §1

NCI-H1299 = assay: MTS assay, NCI-H1299 cells; type: cell-based; settings: Homo sapiens, 72 hours
In short: as §1

PACA-2 = assay: MTS assay, PACA-2 cells; type: cell-based; settings: 72 hours
In short: as §1

PC-3 = assay: MTS assay, PC-3 cells; type: cell-based; settings: Homo sapiens, 72 hours
In short: as §1

ABL T315I = ABL T315I (Homo sapiens, UniProt P00519, T315I); assay: ABL Kinase Activity Assay (Elisa), ABL T315I; type: biochemical; settings: ATP 100 μM, read-out: Abl(T315I) Enzymetic assay (Elisa) % inhibition
In short: (§2)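 Recombinant ABL or ABL T315I (0.089 nM final) preincubated 20 min with compound, then reacted 1 h at room temperature with 100 μM ATP and 128 nM biotinylated AblTide in Tris pH 7.0/MgCl2 buffer. Phosphopeptide captured on streptavidin and detected by anti-phosphotyrosine ELISA with alkaline phosphatase secondary and Attophos fluorescence.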

ABL = ABL (Homo sapiens, UniProt P00519); assay: ABL Kinase Activity Assay (Elisa), ABL; type: biochemical; settings: ATP 100 μM, read-out: Abl Enzymetic assay (Elisa) % inhibition
In short: as §2

| SMILES | melting point [°C] | inhibition at 10 µM (DLD-1) [%] | inhibition at 10 µM (KATO III) [%] | inhibition at 10 µM (MDA-MB-231) [%] | inhibition at 10 µM (NCI-H1299) [%] | inhibition at 10 µM (PACA-2) [%] | inhibition at 10 µM (PC-3) [%] | inhibition at 10 µM (ABL T315I) [%] | inhibition at 10 µM (ABL) [%] |
| --- | --- | --- | --- | --- | --- | --- | --- | --- | --- |
| c1cnc2c(c1)-c1nc(NC3CCNCC3)ncc1-c1ccncc1N2 (as salt: TFA) [Example 59, N-piperidin-4-yl-9H-dipyrido[2,3-b:4′,3′-f]pyrimido[4,5-d]azepin-2-amine] | 189 to 191 | – | – | – | – | – | – | – | – |
| Cc1cccc2c(CCNc3ncc4c(n3)-c3cccnc3Nc3ccccc3-4)c[nH]c12 [Example 65, N-[2-(7-methyl-1H-indol-3-yl)ethyl]-9H-pyrido[2,3-b]pyrimido[4,5-d][1]benzazepin-2-amine] | 188 to 190 | 80 to 100 | 80 to 100 | 50 to 79 | 80 to 100 | 80 to 100 | 80 to 100 | – | – |
| OCCc1cccc(Nc2ncc3c(n2)-c2cccnc2Nc2cnccc2-3)c1 [Example 56, 2-[3-(9H-dipyrido[2,3-b:4′,3′-f]pyrimido[4,5-d]azepin-2-ylamino)phenyl]ethanol] | 208 to 211 | 50 to 79 | 80 to 100 | < 50 | 50 to 79 | 80 to 100 | < 50 | – | – |
| CN(C)CCCCNc1ncc2c(n1)-c1cccnc1Nc1cnccc1-2 (as salt: TFA) [Example 51, N′-9H-dipyrido[2,3-b:4′,3′-f]pyrimido[4,5-d]azepin-2-yl-N,N-dimethylbutane-1,4-diamine] | 154 to 156 | – | – | – | – | – | – | – | – |
| c1ccc(CNc2ncc3c(n2)-c2cccnc2Nc2cnccc2-3)nc1 (as salt: TFA) [Example 49, N-(pyridin-2-ylmethyl)-9H-dipyrido[2,3-b:4′,3′-f]pyrimido[4,5-d]azepin-2-amine] | 253 to 255 | – | – | – | – | – | – | – | – |
| c1ccc(-c2ncc3c(n2)-c2cccnc2Nc2cnccc2-3)cc1 [Example 54, 2-phenyl-9H-dipyrido[2,3-b:4′,3′-f]pyrimido[4,5-d]azepine] | > 300 | < 50 | < 50 | < 50 | < 50 | – | < 50 | – | – |
| c1cnc2c(c1)-c1nc(NCc3ccnc4[nH]ccc34)ncc1-c1ccncc1N2 [Example 55, N-(1H-pyrrolo[2,3-b]pyridin-4-ylmethyl)-9H-dipyrido[2,3-b:4′,3′-f]pyrimido[4,5-d]azepin-2-amine] | 208 to 211 | 80 to 100 | 80 to 100 | < 50 | 50 to 79 | 80 to 100 | 80 to 100 | – | – |
| Clc1cccc(CNc2ncc3c(n2)-c2cccnc2Nc2cnccc2-3)c1 [Example 1, N-(3-chlorobenzyl)-9H-dipyrido[2,3-b:4′,3′-f]pyrimido[4,5-d]azepin-2-amine] | 195 to 196 | 50 to 79 | 80 to 100 | < 50 | 50 to 79 | < 50 | – | 80 to 100 | 80 to 100 |
| c1cnc2c(c1)-c1nc(NCC3CCNCC3)ncc1-c1ccncc1N2 (as salt: TFA) [Example 60, N-(piperidin-4-ylmethyl)-9H-dipyrido[2,3-b:4′,3′-f]pyrimido[4,5-d]azepin-2-amine] | 151 to 153 | – | – | – | – | – | – | – | – |
| Nc1ccc(-c2ncc3c(n2)-c2cccnc2Nc2cnccc2-3)cc1 [Example 53, 4-(9H-dipyrido[2,3-b:4′,3′-f]pyrimido[4,5-d]azepin-2-yl)aniline] | > 300 | < 50 | < 50 | < 50 | < 50 | < 50 | < 50 | – | – |
| CN(C)CCCCCNc1ncc2c(n1)-c1cccnc1Nc1cnccc1-2 (as salt: TFA) [Example 48, N′-9H-dipyrido[2,3-b:4′,3′-f]pyrimido[4,5-d]azepin-2-yl-N,N-dimethylpentane-1,5-diamine] | 133 to 136 | – | – | – | – | – | – | – | – |
| Cc1cccc2c(CCNc3ncc4c(n3)-c3cccnc3Nc3cnccc3-4)c[nH]c12 [Example 52, N-[2-(7-methyl-1H-indol-3-yl)ethyl]-9H-dipyrido[2,3-b:4′,3′-f]pyrimido[4,5-d]azepin-2-amine] | 153 to 155 | 50 to 79 | 80 to 100 | < 50 | 50 to 79 | < 50 | < 50 | 80 to 100 | 80 to 100 |
| c1cnc2c(c1)-c1nc(NC3CCCCC3)ncc1-c1ccncc1N2 [Example 35, N-cyclohexyl-9H-dipyrido[2,3-b:4′,3′-f]pyrimido[4,5-d]azepin-2-amine] | – | < 50 | 50 to 79 | < 50 | 50 to 79 | < 50 | < 50 | 80 to 100 | 80 to 100 |
| OCCc1ccc(Nc2ncc3c(n2)-c2cccnc2Nc2ccccc2-3)cc1 [Example 63, 2-[4-(9H-pyrido[2,3-b]pyrimido[4,5-d][1]benzazepin-2-ylamino)phenyl]ethanol] | – | 50 to 79 | 50 to 79 | < 50 | < 50 | 80 to 100 | 50 to 79 | < 50 | < 50 |
| CN(C)CCCNc1ncc2c(n1)-c1cccnc1Nc1cnccc1-2 (as salt: TFA) [Example 50, N′-9H-dipyrido[2,3-b:4′,3′-f]pyrimido[4,5-d]azepin-2-yl-N,N-dimethylpropane-1,3-diamine] | > 253 | – | – | – | – | – | – | – | – |
| CCCC(C)Nc1ncc2c(n1)-c1cccnc1Nc1cnccc1-2 (stereo not shown) [Example 5, N-(1-methylbutyl)-9H-dipyrido[2,3-b:4′,3′-f]pyrimido[4,5-d]azepin-2-amine] | – | < 50 | 50 to 79 | < 50 | < 50 | < 50 | < 50 | 80 to 100 | 80 to 100 |
| Cc1ccccc1CCNc1ncc2c(n1)-c1cccnc1Nc1cnccc1-2 [Example 15, N-[2-(2-methylphenyl)ethyl]-9H-dipyrido[2,3-b:4′,3′-f]pyrimido[4,5-d]azepin-2-amine] | – | < 50 | 50 to 79 | < 50 | < 50 | < 50 | < 50 | 80 to 100 | 80 to 100 |
| c1ccc2c(c1)Nc1ncccc1-c1nc(NCc3ccnc4[nH]ccc34)ncc1-2 [Example 66, N-(1H-pyrrolo[2,3-b]pyridin-4-ylmethyl)-9H-pyrido[2,3-b]pyrimido[4,5-d][1]benzazepin-2-amine] | 285 to 288 | 50 to 79 | 80 to 100 | 50 to 79 | 50 to 79 | 80 to 100 | 50 to 79 | – | – |
| Fc1cccc(CNc2ncc3c(n2)-c2cccnc2Nc2cnccc2-3)c1 [Example 39, N-(3-fluorobenzyl)-9H-dipyrido[2,3-b:4′,3′-f]pyrimido[4,5-d]azepin-2-amine] | – | 80 to 100 | 80 to 100 | 80 to 100 | 80 to 100 | 80 to 100 | 80 to 100 | 80 to 100 | 80 to 100 |
| Fc1ccc(CNc2ncc3c(n2)-c2cccnc2Nc2cnccc2-3)c(F)c1 [Example 2, N-(2,4-difluorobenzyl)-9H-dipyrido[2,3-b:4′,3′-f]pyrimido[4,5-d]azepin-2-amine] | 264 to 266 | < 50 | 50 to 79 | < 50 | 50 to 79 | < 50 | – | 80 to 100 | 80 to 100 |
| FC(F)(F)c1ccc(CNc2ncc3c(n2)-c2cccnc2Nc2cnccc2-3)cc1 [Example 21, N-[4-(trifluoromethyl)benzyl]-9H-dipyrido[2,3-b:4′,3′-f]pyrimido[4,5-d]azepin-2-amine] | – | 80 to 100 | 80 to 100 | 80 to 100 | 80 to 100 | 80 to 100 | 80 to 100 | < 50 | < 50 |
| COc1ccc(CCNc2ncc3c(n2)-c2cccnc2Nc2cnccc2-3)cc1OC [Example 14, N-[2-(3,4-dimethoxyphenyl)ethyl]-9H-dipyrido[2,3-b:4′,3′-f]pyrimido[4,5-d]azepin-2-amine] | – | < 50 | < 50 | < 50 | < 50 | < 50 | < 50 | 80 to 100 | 80 to 100 |
| CCCCNc1ncc2c(n1)-c1cccnc1Nc1cnccc1-2 [Example 7, N-butyl-9H-dipyrido[2,3-b:4′,3′-f]pyrimido[4,5-d]azepin-2-amine] | – | < 50 | 50 to 79 | 50 to 79 | < 50 | < 50 | < 50 | 80 to 100 | 80 to 100 |
